The assay concerns the target T1, human 5-hydroxytryptamine-2C (h5-HT2C) receptor (Homo sapiens, UniProt P28335).
T1 construct: expressed in transfected cells; host or cells: CHO (Chinese Hamster Ovary) cells; membranes
T1 sequence (P28335 33-458): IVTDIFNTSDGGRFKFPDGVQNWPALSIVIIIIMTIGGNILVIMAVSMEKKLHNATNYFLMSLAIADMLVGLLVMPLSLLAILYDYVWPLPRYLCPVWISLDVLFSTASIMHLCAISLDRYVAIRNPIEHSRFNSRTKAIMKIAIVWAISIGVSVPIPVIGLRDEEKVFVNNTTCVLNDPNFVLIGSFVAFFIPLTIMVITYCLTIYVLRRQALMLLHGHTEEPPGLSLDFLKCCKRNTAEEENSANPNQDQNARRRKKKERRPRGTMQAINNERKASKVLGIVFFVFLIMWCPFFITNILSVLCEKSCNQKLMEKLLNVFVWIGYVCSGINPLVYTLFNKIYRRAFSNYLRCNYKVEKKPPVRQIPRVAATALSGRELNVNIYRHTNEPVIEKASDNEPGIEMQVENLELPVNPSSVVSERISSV
As to the kind of experiment: [125I]DOI binding to membranes of CHO cells expressing the human 5-HT2C receptor. As to conditions: [125I]DOI radioligand, CHO cell membranes, room temperature 60 min; read-out: 5-HT2C Affinity Ki.
On to `Cc1ccc(Nc2cccc3c2OC(CN)C3)cc1C` (racemic) [Example 181, (±)-N-[2-(aminomethyl)-2,3-dihydro-1-benzofuran-7-yl]-N-(3,4-dimethylphenyl)amine], for which the inhibitory constant (Ki) (as a rule, a dissociation constant, usually derived from enzyme kinetics or from competition with a known ligand) is 146 nM. For the molecule `CNCC1Cc2cc(-c3ccccc3)cc(-c3ccc(OC)cc3)c2O1` (racemic) [Example 516, (±)-{[7-(4-methoxyphenyl)-5-phenyl-2,3-dihydro-1-benzofuran-2-yl]methyl}methylamine], the inhibitory constant (Ki) worked out at 1580 nM. For the molecule `CCNC[C@H]1Cc2cc(F)cc(-c3c(Cl)cccc3Cl)c2O1` [Example 546, (R)-[7-(2,6-dichloro-phenyl)-5-fluoro-2,3-dihydro-benzofuran-2-ylmethyl]ethylamine], the inhibition constant (Ki) came to 2.3 nM. The figure for `Cc1ccc(Cl)cc1-c1cc(F)cc2c1O[C@@H](CN)C2` [Example 548, {[(2R)-7-(5-chloro-2-methylphenyl)-5-fluoro-2,3-dihydro-1-benzofuran-2-yl]methyl}amine] is 2.3 nM; for `COc1cccc(-c2cc(C(F)(F)F)cc3c2OC(CN)C3)c1` (racemic) [Example 321, (±)-{[5-(trifluoromethyl)-7-(3-methoxyphenyl)-2,3-dihydro-1-benzofuran-2-yl]methyl}amine] it is 59 nM; for `CC(C)(C)c1cccc2c1OC(CN)C2` (racemic) [Example 24, (±)-1-(7-tert-butyl-2,3-dihydro-1-benzofuran-2-yl)methanamine] it is 36 nM. The figure for `Cc1cccc(C)c1-c1cccc2c1CC(CN)O2` (single isomer, unassigned; (-)) [Example 127, (−)-1-[4-(2,6-dimethylphenyl)-2,3-dihydro-1-benzofuran-2-yl]methanamine] is 20 nM; for `Cc1ccccc1-c1cccc2c1CC(CN)O2` (single isomer, unassigned; (-)) [Example 6, (−)-1-[4-(2-methylphenyl)-2,3-dihydro-1-benzofuran-2-yl]methanamine] it is 84 nM. The figure for `NCC1Cc2cc(C(F)(F)F)cc(-c3cccc(C(F)(F)F)c3)c2O1` (racemic) [Example 322, (±)-{[5-(trifluoromethyl)-7-(3-(trifluoromethyl)phenyl)-2,3-dihydro-1-benzofuran-2-yl]methyl}amine] is 427 nM. Turning to `COc1ccc(Nc2cccc3c2OC(CN)C3)cc1C` (racemic) [Example 185, (±)-N-[2-(aminomethyl)-2,3-dihydro-1-benzofuran-7-yl]-N-(4-methoxy-3-methylphenyl)amine], the Ki was determined as 159 nM. The same measure for `CNCC1Cc2cc(-c3cccc(C)c3)cc(F)c2O1` (racemic) [Example 533, (±)-{7-fluoro-5-[3-methylphenyl]-2,3-dihydro-1-benzofuran-2-yl}methyl)methylamine]: 1520 nM.

Consider `NCC1Cc2cc(-c3ccccc3)cc(-c3cccc(F)c3)c2O1` (racemic) [Example 349, (±)-{[7-(3-fluorophenyl)-5-phenyl-2,3-dihydro-1-benzofuran-2-yl]methyl}amine], for which the inhibition constant (Ki) is 760 nM. Regarding `COc1ccccc1-c1cc(C(F)(F)F)cc2c1OC(CN)C2` (racemic) [Example 316, (±)-{[5-(trifluoromethyl)-7-(2-methoxyphenyl)-2,3-dihydro-1-benzofuran-2-yl]methyl}amine], the inhibitory constant (Ki) came to 64 nM.

Turning to `CNCC1Cc2cc(-c3cccc(Cl)c3)cc(F)c2O1` (racemic) [Example 534, (±)-{7-fluoro-5-[3-chlorophenyl]-2,3-dihydro-1-benzofuran-2-yl}methyl)methylamine], the inhibition constant (Ki) was found to be 1050 nM. The same measure for `CNCC1Cc2cc(-c3ccccc3)cc(-c3ccccc3Cl)c2O1` (racemic) [Example 505, (±)-{[7-(2-chlorophenyl)-5-phenyl-2,3-dihydro-1-benzofuran-2-yl]methyl}methylamine]: 371 nM; for `NCC1Cc2cccc(/C=C/c3ccccc3)c2O1` (racemic) [Example 119, (±)-1-{7-[(E)-2-phenylvinyl]-2,3-dihydro-1-benzofuran-2-yl}methanamine]: 78 nM; for `Cc1cccc(-c2cc(C(F)(F)F)cc3c2OC(CN)C3)c1C` (racemic) [Example 328, (±)-{[7-(2,3-dimethylphenyl)-5-(trifluoromethyl)-2,3-dihydro-1-benzofuran-2-yl]methyl}amine]: 61 nM. The same measure for `NCC1Cc2cc(F)cc(-c3cncnc3)c2O1` (racemic) [Example 210, (±)-[(5-fluoro-7-pyrimidin-5-yl-2,3-dihydro-1-benzofuran-2-yl)methyl]amine]: 36 nM; for `NCC1Cc2cc(C(F)(F)F)cc(-c3ccc(F)cc3)c2O1` (racemic) [Example 324, (±)-{[5-(trifluoromethyl)-7-(4-fluorophenyl)-2,3-dihydro-1-benzofuran-2-yl]methyl}amine]: 60 nM; for `NCC1Cc2cc(C(F)(F)F)cc(-c3cccc(F)c3F)c2O1` (racemic) [Example 329, (±)-{[7-(2,3-difluorophenyl)-5-(trifluoromethyl)-2,3-dihydro-1-benzofuran-2-yl]methyl}amine]: 87 nM. The same measure for `CCCCc1ccc(-c2cc(C(F)(F)F)cc3c2OC(CN)C3)cc1` (racemic) [Example 339, (±)-{[7-(4-butylphenyl)-5-(trifluoromethyl)-2,3-dihydro-1-benzofuran-2-yl]methyl}amine]: 328 nM. With `CNCC1Cc2cc(-c3ccccc3)cc(-c3cccc(C)c3)c2O1` (racemic) [Example 512, (±)-{[7-(3-methylphenyl)-5-phenyl-2,3-dihydro-1-benzofuran-2-yl]methyl}methylamine], the inhibition constant (Ki) was 810 nM. The figure for `NCC1Cc2cc(-c3ccccc3)cc(-c3ccc(F)cc3)c2O1` (racemic) [Example 350, (±)-{[7-(4-fluorophenyl)-5-phenyl-2,3-dihydro-1-benzofuran-2-yl]methyl}amine] is 497 nM. For `NCC1Cc2cccc(-c3ccccc3F)c2O1` (single isomer, unassigned; (+)) [Example 51, (+)-1-[7-(2-fluorophenyl)-2,3-dihydro-1-benzofuran-2-yl]methanamine], the inhibitory constant (Ki) came out at 1 nM. In the case of `NCC1Cc2cc(-c3ccc(Cl)cc3)cc(F)c2O1` (racemic) [Example 386, (±)-{[7-fluoro-5-(4-chlorophenyl)-2,3-dihydro-1-benzofuran-2-yl]methyl}amine], the Ki came to 1020 nM.

Take `NCC1Cc2c(cccc2-c2ccccc2)O1` (single isomer, unassigned; (-)) [Example 3, (−)-1-(4-phenyl-2,3-dihydro-1-benzofuran-2-yl)methanamine]: the Ki was determined as 204 nM.

As to `NCC1Cc2cc(C(F)(F)F)cc(-c3ccccc3C(F)(F)F)c2O1` (racemic) [Example 317, (±)-{[5-(trifluoromethyl)-7-(2-(trifluoromethyl)phenyl)-2,3-dihydro-1-benzofuran-2-yl]methyl}amine], the Ki was 84 nM. The same measure for `NCC1Cc2cccc(-c3cccc4ccccc34)c2O1` (racemic) [Example 33, (±)-1-[7-(1-naphthyl)-2,3-dihydro-1-benzofuran-2-yl]methanamine]: 32 nM.

For the molecule `NCC1Cc2cccc(Nc3ccc(F)c(Cl)c3)c2O1` (racemic) [Example 193, (±)-N-[2-(aminomethyl)-2,3-dihydro-1-benzofuran-7-yl]-N-(3-chloro-4-fluorophenyl)amine], the inhibitory constant (Ki) was determined as 246 nM. The same measure for `CC(C)(C)CCc1cccc2c1OC(CN)C2` (racemic) [Example 118, (±)-1-[7-(3,3-dimethylbutyl)-2,3-dihydro-1-benzofuran-2-yl]methanamine]: 319 nM. The figure for `NCC1Cc2cc(C(F)(F)F)cc(-c3ccc(Cl)cc3)c2O1` (racemic) [Example 325, (±)-{[5-(trifluoromethyl)-7-(4-chlorophenyl)-2,3-dihydro-1-benzofuran-2-yl]methyl}amine] is 320 nM; for `NCC1Cc2cc(Cl)cc(C3CCCCC3)c2O1` (racemic) [Example 11, (±)-(5-chloro-7-cyclohexyl-2,3-dihydro-1-benzofuran-2-yl)methylamine] it is 106 nM; for `NCC1Cc2cccc(-c3ccc(F)cc3)c2O1` (single isomer, unassigned; (-)) [Example 75, (−)-1-[7-(4-fluorophenyl)-2,3-dihydro-1-benzofuran-2-yl]methanamine] it is 103 nM. The figure for `Cc1ccccc1-c1c(F)ccc2c1OC(CN)C2` (single isomer, unassigned; (-)) [Example 397, (−)-{[6-fluoro-7-(2-methylphenyl)-2,3-dihydro-1-benzofuran-2-yl]methyl}amine] is 1.6 nM. Consider `NCC1Cc2cccc(Nc3cccc(F)c3)c2O1` (racemic) [Example 183, (±)-N-[2-(aminomethyl)-2,3-dihydro-1-benzofuran-7-yl]-N-(3-fluorophenyl)amine], for which the Ki was 178 nM.

With `CC(C)c1ccccc1-c1cccc2c1OC(CN)C2` (single isomer, unassigned; (-)) [Example 63, (−)-[7-(2-isopropylphenyl)-2,3-dihydro-1-benzofuran-2-yl]methylamine], the inhibition constant Ki is 52 nM. The figure for `CNCC1Cc2cc(OC)cc(-c3ccc(F)c(Cl)c3)c2O1` (racemic) [Example 503, (±)-{[7-(3-chloro-4-fluorophenyl)-5-methoxy-2,3-dihydro-1-benzofuran-2-yl]methyl}methylamine] is 78 nM.
